For 2 compounds, MIC and MFC results are on record in patent US5053425A, “Novel anti-fungal compounds” (Merck & Co., Inc., priority 1990, dated 1991).

Type in all cases: cell-based
In assay [1] the test system is A. fumigatus MF4839. Put plainly: MIC, inhibitor dilution assay in microtiter format, A. fumigatus MF4839. The conditions noted are these: Aspergillus fumigatus; A. fumigatus MF4839, 42 hours, 28° C.; read-out: Minimum Inhibitory Concentration. The procedure:
(§1) The compounds are particularly active towards filamentous fungi and yeasts including Candida albicans and Crypt neoformans. The sensitivity of filamentous fungi and yeast was determined using inhibitor dilution assays in microtiter format. The compounds were dissolved in DMSO at 2 mg/ml and serially diluted in 0.1M phosphate buffer, pH 7.0 in the microtiter dish from 100 to 0.006 μg/ml. A standardized spore suspension for testing the filamentous fungi was prepared by inoculating Antibiotic Medium #3 containing 1.5% agar with spores such that 1.5×10^3 colony forming units were added per well. The microtiter wells were filled with 50 μl of buffer containing compound and 50 μl of inoculated medium. The sensitivity of yeasts was determined by inoculating yeast nitrogen base containing 1% dextrose (YNB/G) with aliquots of an overnight yeast culture grown in yeast morphology (YM) media at 35° C. and diluting in YNB/G to yield a final concentration of 1.5-7.5×10^3 colony forming units/well. One hundred fifty μl of inoculated media was added per well. To test the sensitivity of yeast, compound was solubilized in 10 percent aqueous DMSO at 2.56 mg/ml. The compound was diluted serially in YNB/G from 128 to 0.06 μg/ml. The wells were filled with 150 μl of drug containing media. […]

For assay [2], the system named is Fus. oxysporum MF4014. Put plainly: MIC, inhibitor dilution assay in microtiter format, Fus. oxysporum MF4014. The conditions noted are these: Fusarium oxysporum; Fus. oxysporum MF4014, 42 hours, 28° C.; read-out: Minimum Inhibitory Concentration. The procedure: as §1
For assay [3], the system named is Pen. italicum MF2819. Put plainly: MIC, inhibitor dilution assay in microtiter format, Pen. italicum MF2819. The conditions noted are these: Penicillium italicum; Pen. italicum MF2819, 42 hours, 28° C.; read-out: Minimum Inhibitory Concentration. The procedure:
as §1

In assay [4] the test system is T. Mentagrophytes MF4864. Put plainly: MIC, inhibitor dilution assay in microtiter format, T. Mentagrophytes MF4864. The conditions noted are these: Trichophyton mentagrophytes; T. Mentagrophytes MF4864, 42 hours, 28° C.; read-out: Minimum Inhibitory Concentration. The procedure:
as §1

The test system of assay [5] is A. flavus MF383. Nature of the assay: MIC, inhibitor dilution assay in microtiter format, A. flavus MF383. The conditions noted are these: Aspergillus flavus; A. flavus MF383, 42 hours, 28° C.; read-out: Minimum Inhibitory Concentration. The procedure:
as §1

Assay [6] concerns C. tropicalis MY1012. Nature of the assay: MIC and MFC, inhibitor dilution assay in microtiter format, C. tropicalis MY1012. The conditions noted are these: Candida tropicalis; for MIC: C. tropicalis MY1012, 24 hours, 28° C., read-out: Minimum Inhibitory Concentration; for MFC: C. tropicalis MY1012, no growth or no more than three colonies, read-out: Minimum Fungicidal Concentration. The protocol:
(§2) The compounds are particularly active towards filamentous fungi and yeasts including Candida albicans and Crypt neoformans. The sensitivity of filamentous fungi and yeast was determined using inhibitor dilution assays in microtiter format. The compounds were dissolved in DMSO at 2 mg/ml and serially diluted in 0.1M phosphate buffer, pH 7.0 in the microtiter dish from 100 to 0.006 μg/ml. A standardized spore suspension for testing the filamentous fungi was prepared by inoculating Antibiotic Medium #3 containing 1.5% agar with spores such that 1.5×10^3 colony forming units were added per well. The microtiter wells were filled with 50 μl of buffer containing compound and 50 μl of inoculated medium. The sensitivity of yeasts was determined by inoculating yeast nitrogen base containing 1% dextrose (YNB/G) with aliquots of an overnight yeast culture grown in yeast morphology (YM) media at 35° C. and diluting in YNB/G to yield a final concentration of 1.5-7.5×10^3 colony forming units/well. One hundred fifty μl of inoculated media was added per well. To test the sensitivity of yeast, compound was solubilized in 10 percent aqueous DMSO at 2.56 mg/ml. The compound was diluted serially in YNB/G from 128 to 0.06 μg/ml. The wells were filled with 150 μl of drug containing media. The minimum inhibitory concentration (MIC) is defined as the lowest concentration to prevent visible growth after an incubation for 42 hours, 28° C. for the filamentous fungi and 24 hours, 28° C. for the yeasts. […] Representative of the antifungal activity are the minimum inhibitory concentration and minimum fungicidal concentration data shown below: […]

For assay [7], the system named is C. parapsilosis MY1010. Nature of the assay: MIC and MFC, inhibitor dilution assay in microtiter format, C. parapsilosis MY1010. The conditions noted are these: Lodderomyces parapsilosis; for MIC: C. parapsilosis MY1010, 24 hours, 28° C., read-out: Minimum Inhibitory Concentration; for MFC: C. parapsilosis MY1010, no growth or no more than three colonies, read-out: Minimum Fungicidal Concentration. The procedure:
as §2

In assay [8] the test system is C. albicans MY1055. Put plainly: MIC and MFC, inhibitor dilution assay in microtiter format, C. albicans MY1055. The conditions noted are these: Candida albicans; for MIC: C. albicans MY1055, 24 hours, 28° C., read-out: Minimum Inhibitory Concentration; for MFC: C. albicans MY1055, no growth or no more than three colonies, read-out: Minimum Fungicidal Concentration. The protocol:
as §2

The subject of assay [9] is A. niger MF442. Nature of the assay: MIC, inhibitor dilution assay in microtiter format, A. niger MF442. The conditions noted are these: Aspergillus niger; A. niger MF442, 42 hours, 28° C.; read-out: Minimum Inhibitory Concentration. The procedure:
as §1

The subject of assay [10] is Coch. miyabeanus MF4626. Put plainly: MIC, inhibitor dilution assay in microtiter format, Coch. miyabeanus MF4626. The conditions noted are these: Bipolaris oryzae, MF4626, 42 h, read-out: Minimum Inhibitory Concentration. The procedure: as §1
Assay [11] relates to Crypt. neoformans MY1051. Nature of the assay: MIC and MFC, inhibitor dilution assay in microtiter format, Crypt. neoformans MY1051. The conditions noted are these: Cryptococcus neoformans; for MFC: Crypt neoformans MY1051, no growth or no more than three colonies, read-out: Minimum Fungicidal Concentration; for MIC: Crypt. neoformans MY1051, 24 hours, 28° C., read-out: Minimum Inhibitory Concentration. The protocol:
as §2

Molecules are shown by their SMILES. Values after ≈ are worked out from the molar mass of the structure shown. Some results are limits rather than exact numbers.

For `C=C(CCC12OC(C(=O)O)C(O)(C(=O)O)C(C(=O)O)(O1)C(OC(=O)C=CC(C)CC(C)CC)C2O)C(OC(C)=O)C(C)Cc1ccccc1` (centres unmarked) [Compound A], the MIC in assay [1] was 6.2 µg/mL (≈ 8.98 µM); in [2], over 100 µg/mL; in [3], 6.2 µg/mL (≈ 8.98 µM); in assay [4], 4 µg/mL (≈ 5.79 µM); in assay [5], 6.2 µg/mL (≈ 8.98 µM); in [6] it was 4 µg/mL (≈ 5.79 µM). Also, the MIC came out at 8 µg/mL (≈ 11.6 µM) in assay [7]; 8 µg/mL (≈ 11.6 µM) in assay [8]; 25 µg/mL (≈ 36.2 µM) in [9]; 1.6 µg/mL (≈ 2.32 µM) in [10]; 1 µg/mL (≈ 1.45 µM) in assay [11]. For the same compound, the MFC turned out to be 2 µg/mL (≈ 2.9 µM) in [6], 2 µg/mL (≈ 2.9 µM) in assay [7], 4 µg/mL (≈ 5.79 µM) in [8] and 0.5 µg/mL (≈ 0.724 µM) in [11].

`C=C(CCC12OC(C(=O)OC)C(O)(C(=O)OC)C(C(=O)OC)(O1)C(OC(=O)C=CC(C)CC(C)CC)C2O)C(OC(C)=O)C(C)Cc1ccccc1` (centres unmarked) [Compound B]: the MIC in assay [1], in [4], in assay [5], in [6], in assay [7] and in assay [8] was over 128 µg/mL throughout. Also, the MIC in assay [11] is over 128 µg/mL. The MFC in assay [6], in assay [7], in assay [8] and in [11] was over 128 µg/mL each time.
